# Measurements from patent US10550143B2, “C,O-spiro aryl glycoside compounds, preparation therefor and use thereof” (SHANGHAI INSTITUTE OF MATERIA MEDICA, CHINESE ACADEMY OF …, priority 2015, dated 2020).
# Key:
# Format in all cases: in vivo, mouse
# C57BL/6J mice [1] = experiment: Acute administration of A28 at multiple doses, urinary glucose of C57BL/6J mice; settings: 24 h urine
# Procedure: (1) 90 normal male C57BL/6J mice were selected and randomly divided into 9 groups according to body weight and blood glucose, 10 in each group. […] After oral gavage, the mice were placed in rats (mice) metabolic cages, […] and urine was collected after 24 h, and the urine volume was recorded, then preserved under −20° C. Rats take food and water freely during the experimental period.
# (2) Index Determination: Glucose levels in urine are measured by the glucose assay kit.
# db/db mice [2] = experiment: Chronic administration, fasting blood glucose in db/db mice; settings: for fasting blood glucose Pre: before administration; for Hypoglycemic rate % week 1 / Hypoglycemic rate % week 2 / Hypoglycemic rate % week 3 / Hypoglycemic rate % week 4: fasting blood glucose
# Procedure: Oral gavage administrated, daily dose volume was 10 mL/kg, administered once daily. Administration time was 9: 00-10:00 daily, and the administration period was 5 weeks.
# The random blood glucose of mice in the normal control group, model control group, test substance administration group and positive control group were determined on the 7th, 14th, 21st, 28th day (9: 00-10:00) every week after the first administration, and food was removed and after 6 hours of starvation, the fasting blood glucose in each group was measured. Free drinking during the hunger process. The rate of decrease of blood glucose was calculated according to the following formula: Average hypoglycemic rate %=(Blood glucose of model control group−Blood glucose of administration group)/Model control group×100%
# db/db mice [3] = experiment: Acute administration at multiple doses, random blood glucose in db/db mice; settings: for Blood glucose level 0 h: before administration
# Procedure: (1) 127 db/db mice (half male and half female) entered the animal laboratory of the institute at 7 weeks of age and were grouped at 10 weeks of age. Random blood glucose and random body weight of all db/db mice were determined at 9:00 am, and then fasted for 6 hours (free drinking). Fasting blood glucose and fasting body weight were determined, and blood was collected (10 μl EDTA+20 μl tail blood, centrifugated to collect supernatant) to determine the insulin content. […] The db/db mice were once orally administered at a dose of 10 mL/kg. Blood glucose levels were measured before administration, and at 1 h, 2 h, 3 h, 4 h, 6 h after administration, and the administration times and body weights were recorded. Mice took food and water freely during the experiment.
# Average hypoglycemic rate %=(model control group−administration group)/(model control group−blank control group)*100%
# C57BL/6J mice [4] = experiment: Acute administration of A28 at multiple doses, oral glucose tolerance of C57BL/6J mice; settings: C57BL/6J mice OGTT; for Blood glucose level 0: before sugar
# Procedure: (1) Experimental Methods: 56 C57BL/6J mice were selected and starved for 6 h, took water freely, then randomly divided into 7 groups according to body weight and random blood glucose, 8 rats in each group. […] Average hypoglycemic rate %=(AUC0-120 min of solvent control group−AUC0-120 min of administration group)/(AUC0-120 min of solvent control group−AUC0-120 min of blank control group)*100%
smiles,measurement,setting,value
CCOc1ccc(Cc2cc([C@@H]3O[C@H](CO)[C@@H](O)[C@H](O)[C@H]3O)ccc2Cl)cc1 [Dapa],Total sugar excretion,C57BL/6J mice [1]; oral 1 mg/kg,258.20 ± 81.71 mg/100 g
same,Urine concentration,C57BL/6J mice [1]; oral 1 mg/kg,142.82 ± 45.20 mmol/L
same,Urine volume,C57BL/6J mice [1]; oral 1 mg/kg,2.3 ± 0.7 mL
same,Total sugar excretion,C57BL/6J mice [1]; oral 3 mg/kg,315.49 ± 99.84 mg/100 g
same,Urine concentration,C57BL/6J mice [1]; oral 3 mg/kg,177.86 ± 56.29 mmol/L
same,Urine volume,C57BL/6J mice [1]; oral 3 mg/kg,2.3 ± 0.7 mL
same,fasting blood glucose week 1,db/db mice [2]; 1 mg/kg once daily oral,9.4 ± 0.6 mmol/L
same,fasting blood glucose week 2,db/db mice [2]; 1 mg/kg once daily oral,9.0 ± 0.6 mmol/L
same,fasting blood glucose week 3,db/db mice [2]; 1 mg/kg once daily oral,10.0 ± 1.0 mmol/L
same,fasting blood glucose week 4,db/db mice [2]; 1 mg/kg once daily oral,9.7 ± 0.7 mmol/L
same,fasting blood glucose Pre,db/db mice [2]; 1 mg/kg once daily oral,14.0 ± 1.0 mmol/L
same,fasting blood glucose week 1,db/db mice [2]; 3 mg/kg once daily oral,8.1 ± 0.6 mmol/L
same,fasting blood glucose week 2,db/db mice [2]; 3 mg/kg once daily oral,7.7 ± 0.6 mmol/L
same,fasting blood glucose week 3,db/db mice [2]; 3 mg/kg once daily oral,8.6 ± 0.4 mmol/L
same,fasting blood glucose week 4,db/db mice [2]; 3 mg/kg once daily oral,7.8 ± 0.4 mmol/L
same,fasting blood glucose Pre,db/db mice [2]; 3 mg/kg once daily oral,13.8 ± 1.2 mmol/L
same,Hypoglycemic rate % week 1,db/db mice [2]; 1 mg/kg once daily oral,30.3%
same,Hypoglycemic rate % week 2,db/db mice [2]; 1 mg/kg once daily oral,59.0%
same,Hypoglycemic rate % week 3,db/db mice [2]; 1 mg/kg once daily oral,43.9%
same,Hypoglycemic rate % week 4,db/db mice [2]; 1 mg/kg once daily oral,39.5%
same,Hypoglycemic rate % week 1,db/db mice [2]; 3 mg/kg once daily oral,39.8%
same,Hypoglycemic rate % week 2,db/db mice [2]; 3 mg/kg once daily oral,65.1%
same,Hypoglycemic rate % week 3,db/db mice [2]; 3 mg/kg once daily oral,51.6%
same,Hypoglycemic rate % week 4,db/db mice [2]; 3 mg/kg once daily oral,51.0%
same,AUC0-6 h,db/db mice [3]; single oral 1 mg/kg,67.8 ± 2.5 mmol·h/L
same,Blood glucose level 1 h,db/db mice [3]; single oral 1 mg/kg,13.0 ± 0.7 mmol/L
same,Blood glucose level 2 h,db/db mice [3]; single oral 1 mg/kg,11.4 ± 0.6 mmol/L
same,Blood glucose level 3 h,db/db mice [3]; single oral 1 mg/kg,10.2 ± 0.6 mmol/L
same,Blood glucose level 4 h,db/db mice [3]; single oral 1 mg/kg,9.8 ± 0.7 mmol/L
same,Blood glucose level 6 h,db/db mice [3]; single oral 1 mg/kg,8.8 ± 0.6 mmol/L
same,Blood glucose level 0 h,db/db mice [3]; single oral 1 mg/kg,19.3 ± 1.3 mmol/L
same,AUC0-6 h,db/db mice [3]; single oral 3 mg/kg,59.7 ± 1.7 mmol·h/L
same,Blood glucose level 1 h,db/db mice [3]; single oral 3 mg/kg,11.8 ± 0.5 mmol/L
same,Blood glucose level 2 h,db/db mice [3]; single oral 3 mg/kg,8.5 ± 0.4 mmol/L
same,Blood glucose level 3 h,db/db mice [3]; single oral 3 mg/kg,8.6 ± 0.5 mmol/L
same,Blood glucose level 4 h,db/db mice [3]; single oral 3 mg/kg,8.5 ± 0.3 mmol/L
same,Blood glucose level 6 h,db/db mice [3]; single oral 3 mg/kg,9.4 ± 0.7 mmol/L
same,Blood glucose level 0 h,db/db mice [3]; single oral 3 mg/kg,17.5 ± 1.3 mmol/L
same,AUC0-2 h,C57BL/6J mice [4]; oral 0.3 mg/kg,20.9 ± 1.6 mmol·h/L
same,Average hypoglycemic rate % (0-2 h),C57BL/6J mice [4]; oral 0.3 mg/kg,4.9%
same,Blood glucose level 15 min,C57BL/6J mice [4]; oral 0.3 mg/kg,13.4 ± 2.3 mmol/L
same,Blood glucose level 30 min,C57BL/6J mice [4]; oral 0.3 mg/kg,12.1 ± 1.0 mmol/L
same,Blood glucose level 60 min,C57BL/6J mice [4]; oral 0.3 mg/kg,10.6 ± 1.0 mmol/L
same,Blood glucose level 90 min,C57BL/6J mice [4]; oral 0.3 mg/kg,9.3 ± 1.1 mmol/L
same,Blood glucose level 120 min,C57BL/6J mice [4]; oral 0.3 mg/kg,8.8 ± 0.8 mmol/L
same,Blood glucose level 0,C57BL/6J mice [4]; oral 0.3 mg/kg,7.1 ± 0.4 mmol/L
same,AUC0-2 h,C57BL/6J mice [4]; oral 1 mg/kg,19.3 ± 1.3 mmol·h/L
same,Average hypoglycemic rate % (0-2 h),C57BL/6J mice [4]; oral 1 mg/kg,12.4%
same,Blood glucose level 15 min,C57BL/6J mice [4]; oral 1 mg/kg,12.3 ± 1.1 mmol/L
same,Blood glucose level 30 min,C57BL/6J mice [4]; oral 1 mg/kg,12.0 ± 1.1 mmol/L
same,Blood glucose level 60 min,C57BL/6J mice [4]; oral 1 mg/kg,9.1 ± 1.1 mmol/L
same,Blood glucose level 90 min,C57BL/6J mice [4]; oral 1 mg/kg,8.4 ± 0.9 mmol/L
same,Blood glucose level 120 min,C57BL/6J mice [4]; oral 1 mg/kg,8.5 ± 0.9 mmol/L
same,Blood glucose level 0,C57BL/6J mice [4]; oral 1 mg/kg,6.5 ± 0.9 mmol/L
same,AUC0-2 h,C57BL/6J mice [4]; oral 3 mg/kg,18.2 ± 1.6 mmol·h/L
same,Average hypoglycemic rate % (0-2 h),C57BL/6J mice [4]; oral 3 mg/kg,17.5%
same,Blood glucose level 15 min,C57BL/6J mice [4]; oral 3 mg/kg,11.6 ± 0.9 mmol/L
same,Blood glucose level 30 min,C57BL/6J mice [4]; oral 3 mg/kg,11.6 ± 1.1 mmol/L
same,Blood glucose level 60 min,C57BL/6J mice [4]; oral 3 mg/kg,8.9 ± 1.4 mmol/L
same,Blood glucose level 90 min,C57BL/6J mice [4]; oral 3 mg/kg,7.9 ± 1.1 mmol/L
same,Blood glucose level 120 min,C57BL/6J mice [4]; oral 3 mg/kg,7.0 ± 0.6 mmol/L
same,Blood glucose level 0,C57BL/6J mice [4]; oral 3 mg/kg,6.1 ± 1.0 mmol/L
